Measured values reported in patent US11020399B2, “Intermediates useful in the synthesis of compounds as modulators of protein kinases” (Rhizen Pharmaceuticals SA, priority 2011, dated 2021).

Columns and labels:
[1] = target: PI3kα (Homo sapiens, UniProt P42336); test: Fluorescent (HTRF) determination of PI3 kinase enzyme activity, PI3Kα; format: biochemical; settings: 1 uM
Outline: (§1)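 Human PI3K isoforms were preincubated with compound for 10 min at room temperature in 10 mM MgCl2, 5 mM DTT, 1.38 μM PIP2, then reacted 30 min after adding 400 μM ATP stock. PIP3 was read by HTRF (665/620 nm). Percent inhibition used blank and enzyme controls; single-point testing was at 1 uM for α/β and 0.3 or 0.1 uM for γ/δ.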

[2] = target: PI3kδ (Homo sapiens, UniProt O00329); test: Fluorescent (HTRF) determination of PI3 kinase enzyme activity, PI3Kδ; format: biochemical; settings: for inhibition at 0.1 µM / % inhibition (PI3kδ) 100 nM: 100 nM (Examples 60-137); for % inhibition (PI3kδ) 100 nM: 0.1 µM; for inhibition at 0.3 µM: 300 nM (Examples 1-59)
Outline: as §1

[3] = target: PI3kβ (Homo sapiens, UniProt P42338); test: Fluorescent (HTRF) determination of PI3 kinase enzyme activity, PI3Kβ; format: biochemical; settings: 1 uM
Outline: as §1

[4] = target: PI3kγ (Homo sapiens, UniProt P48736); test: Fluorescent (HTRF) determination of PI3 kinase enzyme activity, PI3Kγ; format: biochemical; settings: for inhibition at 0.1 µM / % inhibition (PI3kγ) 100 nM: 100 nM (Examples 60-137); for % inhibition (PI3kγ) 100 nM: 0.1 µM; for inhibition at 0.3 µM: 300 nM (Examples 1-59)
Outline: as §1

PI3kα, sequence (P42336 whole entry, canonical isoform): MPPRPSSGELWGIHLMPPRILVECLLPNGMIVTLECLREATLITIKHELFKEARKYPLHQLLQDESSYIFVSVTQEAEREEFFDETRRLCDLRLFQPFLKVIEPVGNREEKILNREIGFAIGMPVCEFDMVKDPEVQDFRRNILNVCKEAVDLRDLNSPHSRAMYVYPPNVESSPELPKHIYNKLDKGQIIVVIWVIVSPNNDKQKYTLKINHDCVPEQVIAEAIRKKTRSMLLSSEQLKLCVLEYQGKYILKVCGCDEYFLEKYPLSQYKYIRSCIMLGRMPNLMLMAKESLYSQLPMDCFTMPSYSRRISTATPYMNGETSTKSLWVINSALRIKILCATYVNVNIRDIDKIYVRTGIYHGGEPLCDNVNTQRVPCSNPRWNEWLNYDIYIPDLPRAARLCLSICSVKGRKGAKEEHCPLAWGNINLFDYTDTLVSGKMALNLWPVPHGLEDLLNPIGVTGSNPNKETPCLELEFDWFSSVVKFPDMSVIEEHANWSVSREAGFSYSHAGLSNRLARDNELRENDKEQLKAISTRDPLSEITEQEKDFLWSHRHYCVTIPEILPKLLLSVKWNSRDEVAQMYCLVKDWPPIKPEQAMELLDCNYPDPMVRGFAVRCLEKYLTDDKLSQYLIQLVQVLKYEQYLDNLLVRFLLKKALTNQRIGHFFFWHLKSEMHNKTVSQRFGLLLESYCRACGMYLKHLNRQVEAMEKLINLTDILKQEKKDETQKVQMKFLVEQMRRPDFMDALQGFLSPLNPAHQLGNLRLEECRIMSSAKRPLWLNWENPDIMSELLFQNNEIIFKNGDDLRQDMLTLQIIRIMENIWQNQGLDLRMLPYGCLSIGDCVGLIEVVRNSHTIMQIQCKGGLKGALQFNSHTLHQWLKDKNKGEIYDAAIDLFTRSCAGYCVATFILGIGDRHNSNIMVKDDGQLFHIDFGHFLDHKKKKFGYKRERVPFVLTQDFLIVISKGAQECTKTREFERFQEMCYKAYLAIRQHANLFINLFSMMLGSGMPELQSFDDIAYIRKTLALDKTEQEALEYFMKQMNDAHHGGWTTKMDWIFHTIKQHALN
PI3kα, sequence (P27986 whole entry partner, canonical isoform): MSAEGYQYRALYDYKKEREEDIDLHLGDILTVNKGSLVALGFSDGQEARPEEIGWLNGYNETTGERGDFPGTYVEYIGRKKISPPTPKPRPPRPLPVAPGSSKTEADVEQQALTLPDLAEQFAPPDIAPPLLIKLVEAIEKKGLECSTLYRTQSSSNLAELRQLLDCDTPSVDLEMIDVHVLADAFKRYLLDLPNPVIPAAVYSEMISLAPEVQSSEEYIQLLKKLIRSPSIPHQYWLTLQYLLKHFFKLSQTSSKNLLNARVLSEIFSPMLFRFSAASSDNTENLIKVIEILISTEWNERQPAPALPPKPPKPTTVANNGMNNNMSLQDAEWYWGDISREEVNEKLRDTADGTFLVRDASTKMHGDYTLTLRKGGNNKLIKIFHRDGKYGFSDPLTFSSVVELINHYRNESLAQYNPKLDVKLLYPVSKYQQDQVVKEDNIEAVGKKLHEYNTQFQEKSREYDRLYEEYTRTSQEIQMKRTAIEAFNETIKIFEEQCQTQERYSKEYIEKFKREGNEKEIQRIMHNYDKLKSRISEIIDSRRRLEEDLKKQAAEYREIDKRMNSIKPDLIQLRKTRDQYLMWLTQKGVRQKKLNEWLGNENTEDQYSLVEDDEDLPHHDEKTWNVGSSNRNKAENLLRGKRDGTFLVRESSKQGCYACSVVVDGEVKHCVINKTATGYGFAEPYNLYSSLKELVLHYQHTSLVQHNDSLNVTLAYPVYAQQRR
PI3kβ, sequence (P42338 whole entry): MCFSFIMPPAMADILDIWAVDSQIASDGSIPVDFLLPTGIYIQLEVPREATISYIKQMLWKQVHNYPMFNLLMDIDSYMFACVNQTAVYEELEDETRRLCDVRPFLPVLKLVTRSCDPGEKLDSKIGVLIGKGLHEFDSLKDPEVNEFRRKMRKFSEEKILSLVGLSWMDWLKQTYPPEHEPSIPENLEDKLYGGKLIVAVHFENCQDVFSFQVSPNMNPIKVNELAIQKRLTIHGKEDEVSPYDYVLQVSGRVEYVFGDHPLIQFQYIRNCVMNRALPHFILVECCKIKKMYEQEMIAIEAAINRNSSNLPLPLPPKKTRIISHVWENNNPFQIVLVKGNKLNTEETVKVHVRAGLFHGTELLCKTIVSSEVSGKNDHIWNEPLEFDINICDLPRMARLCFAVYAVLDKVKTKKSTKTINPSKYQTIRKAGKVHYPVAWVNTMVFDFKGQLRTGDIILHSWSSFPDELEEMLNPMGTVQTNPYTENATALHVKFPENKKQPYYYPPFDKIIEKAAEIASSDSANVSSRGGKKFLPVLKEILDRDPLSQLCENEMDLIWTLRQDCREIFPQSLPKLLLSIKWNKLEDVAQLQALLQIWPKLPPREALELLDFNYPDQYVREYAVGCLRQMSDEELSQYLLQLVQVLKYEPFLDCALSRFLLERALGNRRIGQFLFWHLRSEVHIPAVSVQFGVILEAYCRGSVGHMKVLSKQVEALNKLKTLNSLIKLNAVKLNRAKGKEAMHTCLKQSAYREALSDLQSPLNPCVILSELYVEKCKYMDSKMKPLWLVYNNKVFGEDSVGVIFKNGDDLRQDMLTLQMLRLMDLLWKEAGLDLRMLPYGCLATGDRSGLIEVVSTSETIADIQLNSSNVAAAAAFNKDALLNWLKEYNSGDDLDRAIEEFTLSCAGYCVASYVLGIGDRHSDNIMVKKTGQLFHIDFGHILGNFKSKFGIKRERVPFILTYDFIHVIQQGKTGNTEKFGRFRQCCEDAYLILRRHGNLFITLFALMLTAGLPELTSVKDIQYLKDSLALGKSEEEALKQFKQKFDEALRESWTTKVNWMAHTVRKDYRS
PI3kβ, sequence (P27986 whole entry partner): as the sequence (P27986 whole entry partner, canonical isoform) above
PI3kδ, sequence (O00329 whole entry): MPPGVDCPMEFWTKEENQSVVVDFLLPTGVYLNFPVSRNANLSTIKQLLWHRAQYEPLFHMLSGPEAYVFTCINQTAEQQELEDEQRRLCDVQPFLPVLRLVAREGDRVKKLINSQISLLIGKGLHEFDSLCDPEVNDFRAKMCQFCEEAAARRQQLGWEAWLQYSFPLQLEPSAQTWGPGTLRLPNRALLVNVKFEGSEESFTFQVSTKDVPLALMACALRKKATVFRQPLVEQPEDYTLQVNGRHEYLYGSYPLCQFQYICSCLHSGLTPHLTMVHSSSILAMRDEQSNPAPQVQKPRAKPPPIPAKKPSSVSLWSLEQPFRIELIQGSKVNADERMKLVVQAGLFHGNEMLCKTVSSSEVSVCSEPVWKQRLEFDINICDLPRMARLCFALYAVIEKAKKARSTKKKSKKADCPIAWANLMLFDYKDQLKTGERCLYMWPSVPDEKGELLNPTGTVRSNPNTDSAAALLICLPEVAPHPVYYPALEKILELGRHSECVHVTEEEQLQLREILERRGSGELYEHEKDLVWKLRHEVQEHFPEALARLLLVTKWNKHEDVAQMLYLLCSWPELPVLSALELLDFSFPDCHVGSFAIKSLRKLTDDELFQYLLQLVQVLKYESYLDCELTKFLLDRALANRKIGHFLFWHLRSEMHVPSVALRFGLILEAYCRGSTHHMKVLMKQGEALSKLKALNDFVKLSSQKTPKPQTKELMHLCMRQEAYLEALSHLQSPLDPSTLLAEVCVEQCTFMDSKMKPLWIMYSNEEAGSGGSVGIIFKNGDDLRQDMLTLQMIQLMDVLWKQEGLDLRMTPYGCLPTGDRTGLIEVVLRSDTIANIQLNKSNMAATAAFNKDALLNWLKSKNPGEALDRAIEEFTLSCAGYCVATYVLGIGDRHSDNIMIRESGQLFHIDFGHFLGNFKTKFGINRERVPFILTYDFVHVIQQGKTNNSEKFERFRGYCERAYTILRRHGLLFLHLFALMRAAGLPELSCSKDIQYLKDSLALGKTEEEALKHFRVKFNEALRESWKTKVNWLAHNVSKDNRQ
PI3kδ, sequence (P27986 whole entry partner): as the sequence (P27986 whole entry partner, canonical isoform) above
PI3kγ, sequence (P48736 whole entry): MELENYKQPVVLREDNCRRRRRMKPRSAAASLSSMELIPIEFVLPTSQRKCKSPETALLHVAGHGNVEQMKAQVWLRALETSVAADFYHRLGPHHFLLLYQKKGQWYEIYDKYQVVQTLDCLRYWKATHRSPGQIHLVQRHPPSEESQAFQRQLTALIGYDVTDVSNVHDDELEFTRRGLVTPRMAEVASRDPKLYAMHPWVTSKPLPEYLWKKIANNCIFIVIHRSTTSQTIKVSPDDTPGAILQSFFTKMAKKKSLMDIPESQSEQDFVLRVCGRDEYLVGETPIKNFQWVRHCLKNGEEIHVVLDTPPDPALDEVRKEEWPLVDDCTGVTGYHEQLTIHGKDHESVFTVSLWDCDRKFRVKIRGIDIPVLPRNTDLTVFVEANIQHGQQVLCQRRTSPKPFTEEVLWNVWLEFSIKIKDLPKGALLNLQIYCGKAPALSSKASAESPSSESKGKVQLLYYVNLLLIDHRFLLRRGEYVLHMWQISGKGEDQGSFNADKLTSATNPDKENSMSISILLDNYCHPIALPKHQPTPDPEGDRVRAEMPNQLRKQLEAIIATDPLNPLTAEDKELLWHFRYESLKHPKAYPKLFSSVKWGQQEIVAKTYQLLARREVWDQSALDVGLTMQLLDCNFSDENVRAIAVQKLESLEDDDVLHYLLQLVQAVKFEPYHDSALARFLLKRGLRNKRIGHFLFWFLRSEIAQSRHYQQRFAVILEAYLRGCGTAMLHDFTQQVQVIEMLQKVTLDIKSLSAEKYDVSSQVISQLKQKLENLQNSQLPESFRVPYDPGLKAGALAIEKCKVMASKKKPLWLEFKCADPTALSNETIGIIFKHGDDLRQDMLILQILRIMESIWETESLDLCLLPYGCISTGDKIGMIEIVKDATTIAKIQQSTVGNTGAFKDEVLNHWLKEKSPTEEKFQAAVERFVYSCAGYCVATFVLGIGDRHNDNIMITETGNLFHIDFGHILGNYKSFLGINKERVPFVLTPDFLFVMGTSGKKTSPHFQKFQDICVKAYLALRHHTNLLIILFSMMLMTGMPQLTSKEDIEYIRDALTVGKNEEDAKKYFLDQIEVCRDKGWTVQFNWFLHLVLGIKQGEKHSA

Row | SMILES | inhibition at 1 µM [1] [%] | inhibition at 0.1 µM [2] [%] | melting point [°C] | inhibition at 1 µM [3] [%] | inhibition at 0.1 µM [4] [%] | % inhibition (PI3kα) 1 uM [1] | % inhibition (PI3kδ) 100 nM [2] | % inhibition (PI3kβ) 1 uM [3] | % inhibition (PI3kγ) 100 nM [4] | inhibition at 0.3 µM [2] [%] | inhibition at 0.3 µM [4] [%] | IC50 [4] [nM] | IC50 [2] [nM]
1 | Cc1n[nH]c2cc(-c3nn(C(C)c4oc5cccc(F)c5c(=O)c4-c4cccc(F)c4)c4ncnc(N5CCOCC5)c34)ccc12 (stereo not shown) [Example 112, 5-fluoro-3-(3-fluorophenyl)-2-(1-(3-(3-methyl-1H-indazol-6-yl)-4-morpholino-1H-pyrazolo[3,4-d]pyrimidin-1-yl)ethyl)-4H-chromen-4-one] | 50 to 75 | 50 to 75 | 183 to 186 | 0 to 25 | 50 to 75 |  |  |  |  |  |  |  | 
2 | CC(C)Oc1ccc(-c2nn(C(C)c3oc4cccc(N5CCOCC5)c4c(=O)c3-c3ccccc3)c3ncnc(N)c23)cc1F (stereo not shown) [Example 121, 2-(1-(4-amino-3-(3-fluoro-4-isopropoxyphenyl)-1H-pyrazolo[3,4-d]pyrimidin-1-yl)ethyl)-5-morpholino-3-phenyl-4H-chromen-4-one] | 25 to 50 | 0 to 25 | 211 to 214 | 25 to 50 | 50 to 75 |  |  |  |  |  |  |  | 
3 | CC(=O)Nc1ccc(-c2nn(C(C)c3oc4cccc(F)c4c(=O)c3-c3cccc(F)c3)c3ncnc(N)c23)cc1F (stereo not shown) [Example 82, N-(4-(4-amino-1-(1-(5-fluoro-3-(3-fluorophenyl)-4-oxo-4H-chromen-2-yl)ethyl)-1H-pyrazolo[3,4-d]pyrimidin-3-yl)-2-fluorophenyl)acetamide] | 25 to 50 | 25 to 50 | 220 to 223 | 25 to 50 | 25 to 50 |  |  |  |  |  |  |  | 
4 | CC(c1oc2cccc(F)c2c(=O)c1-c1cccc(F)c1)n1nc(-c2cnc3[nH]ccc3c2)c2c(N)ncnc21 (stereo not shown) [Example 63, 2-(1-(4-amino-3-(1H-pyrrolo[2,3-b]pyridin-5-yl)-1H-pyrazolo[3,4-d]pyrimidin-1-yl)ethyl)-5-fluoro-3-(3-fluorophenyl)-4H-chromen-4-one] | 25 to 50 | 25 to 50 | 303 to 306 | 0 to 25 | 25 to 50 |  |  |  |  |  |  |  | 
5 | CC(c1oc2cccc(F)c2c(=O)c1-c1cccc(F)c1)n1cnc2c(N(C)C)ncnc21 (racemic) [Example 129, (S)/(R)-2-(1-(6-(dimethylamino)-9H-purin-9-yl)ethyl)-5-fluoro-3-(3-fluorophenyl)-4H-chromen-4-one] |  |  | 187 to 189 |  |  | D (D=0 to 25%) | D (D=0 to 25%) | C (C=>25 to 50%) | C (C=>25 to 50%) |  |  |  | 
6 | CC(c1oc2cccc(F)c2c(=O)c1-c1cccc(F)c1)n1nc(-c2ccc(OC3COC3)c(F)c2)c2c(N)ncnc21 (stereo not shown) [Example 46, 2-(1-(4-amino-3-(3-fluoro-4-(oxetan-3-yloxy)phenyl)-1H-pyrazolo[3,4-d]pyrimidin-1-yl)ethyl)-5-fluoro-3-(3-fluorophenyl)-4H-chromen-4-one] | 0 to 25 |  | 235 to 237 | 50 to 75 |  |  |  |  |  | 25 to 50 | 50 to 75 |  | 
7 | Cc1nn(C)c2cc(-c3nn(C(C)c4oc5cccc(F)c5c(=O)c4-c4cccc(F)c4)c4ncnc(N)c34)ccc12 (stereo not shown) [Example 79, 2-(1-(4-amino-3-(1,3-dimethyl-1H-indazol-6-yl)-1H-pyrazolo[3,4-d]pyrimidin-1-yl)ethyl)-5-fluoro-3-(3-fluorophenyl)-4H-chromen-4-one] | 25 to 50 | 0 to 25 | 220 to 224 | 25 to 50 | 25 to 50 |  |  |  |  |  |  |  | 
8 | CNS(=O)(=O)c1ccc(-c2nn(C(C)c3oc4cccc(F)c4c(=O)c3-c3cccc(F)c3)c3ncnc(N)c23)cc1 (stereo not shown) [Example 52, 4-(4-amino-1-(1-(5-fluoro-3-(3-fluorophenyl)-4-oxo-4H-chromen-2-yl)ethyl)-1H-pyrazolo[3,4-d]pyrimidin-3-yl)-N-methylbenzenesulfonamide] | 25 to 50 |  | 175 to 178 | 50 to 75 |  |  |  |  |  | 50 to 75 | 50 to 75 |  | 
9 | CC(C)C(=O)Nc1ccc(-c2nn(C(C)c3oc4cccc(F)c4c(=O)c3-c3ccc(F)cc3)c3ncnc(N4CCOCC4)c23)cc1F (stereo not shown) [Example 86, N-(2-fluoro-4-(1-(1-(5-fluoro-3-(4-fluorophenyl)-4-oxo-4H-chromen-2-yl)ethyl)-4-morpholino-1H-pyrazolo[3,4-d]pyrimidin-3-yl)phenyl)isobutyramide] | 0 to 25 | 50 to 75 | 165 to 167 |  | 25 to 50 |  |  |  |  |  |  | > 500 | 
10 | CC(c1oc2cccc(F)c2c(=O)c1-c1cccc(F)c1)n1nc(-c2ccc3c(c2)CNC3=O)c2c(N)ncnc21 (stereo not shown) [Example 123, 5-(4-amino-1-(1-(5-fluoro-3-(3-fluorophenyl)-4-oxo-4H-chromen-2-yl)ethyl)-1H-pyrazolo[3,4-d]pyrimidin-3-yl)isoindolin-1-one] | 0 to 25 | 50 to 75 | 293 to 296 | 25 to 50 | 0 to 25 |  |  |  |  |  |  |  | 
11 | CC(c1oc2cccc(F)c2c(=O)c1-c1cccc(F)c1)n1nc(-c2ccc(CNC(=O)OC(C)(C)C)o2)c2c(N)ncnc21 (stereo not shown) [Example 74, tert-butyl (5-(4-amino-1-(1-(5-fluoro-3-(3-fluorophenyl)-4-oxo-4H-chromen-2-yl)ethyl)-1H-pyrazolo[3,4-d]pyrimidin-3-yl)furan-2-yl)methylcarbamate] | 0 to 25 | 50 to 75 | 163 to 166 | 25 to 50 | 25 to 50 |  |  |  |  |  |  |  | 
12 | CC(C)NS(=O)(=O)c1ccc(-c2nn(C(C)c3oc4cccc(F)c4c(=O)c3-c3cccc(F)c3)c3ncnc(N)c23)cc1 (stereo not shown) [Example 56, 4-(4-amino-1-(1-(5-fluoro-3-(3-fluorophenyl)-4-oxo-4H-chromen-2-yl)ethyl)-1H-pyrazolo[3,4-d]pyrimidin-3-yl)-N-isopropylbenzenesulfonamide] | 0 to 25 |  | 211 to 214 | 50 to 75 |  |  |  |  |  | 0 to 25 | 50 to 75 |  | 
13 | CC(C)C(=O)Nc1ccc(-c2nn(C(C)c3oc4cccc(F)c4c(=O)c3-c3cccc(F)c3)c3ncnc(N)c23)cc1F (stereo not shown) [Example 81, N-(4-(4-amino-1-(1-(5-fluoro-3-(3-fluorophenyl)-4-oxo-4H-chromen-2-yl)ethyl)-1H-pyrazolo[3,4-d]pyrimidin-3-yl)-2-fluorophenyl)isobutyramide] | 25 to 50 | 50 to 75 | 249 to 252 | 25 to 50 | 25 to 50 |  |  |  |  |  |  |  | 
14 | Cc1cccc2oc([C@H](C)n3nc(-c4ccc(OC(C)C)c(F)c4)c4c(N)ncnc43)c(-c3ccccc3)c(=O)c12 (single isomer, unassigned) [Example 137] | 0 to 25 | 25 to 50 | 208 to 210 | 50 to 75 | 0 to 25 |  |  |  |  |  |  |  | 
15 | CC(c1oc2cccc(F)c2c(=O)c1-c1cccc(F)c1)n1nc(C#CCO)c2c(N)ncnc21 (stereo not shown) [Example 66, 2-(1-(4-amino-3-(3-hydroxyprop-1-ynyl)-1H-pyrazolo[3,4-d]pyrimidin-1-yl)ethyl)-5-fluoro-3-(3-fluorophenyl)-4H-chromen-4-one] | 25 to 50 | 25 to 50 | 220 to 222 | 25 to 50 | 25 to 50 |  |  |  |  |  |  |  | 
16 | Cc1c2ccc(-c3nn(C(C)c4oc5cccc(F)c5c(=O)c4-c4cccc(F)c4)c4ncnc(N)c34)cc2nn1C (stereo not shown) [Example 80, 2-(1-(4-amino-3-(2,3-dimethyl-2H-indazol-6-yl)-1H-pyrazolo[3,4-d]pyrimidin-1-yl)ethyl)-5-fluoro-3-(3-fluorophenyl)-4H-chromen-4-one] | 50 to 75 | 50 to 75 | 232 to 235 | 25 to 50 | 25 to 50 |  |  |  |  |  |  |  | 
17 | CC(Nc1ncnc2[nH]cnc12)c1oc2cccc(F)c2c(=O)c1-c1cccc(F)c1 (stereo not shown) [Example 69, 2-(1-(9H-purin-6-ylamino)ethyl)-5-fluoro-3-(3-fluorophenyl)-4H-chromen-4-one] |  |  | 247 to 249 |  |  |  | B (B=>50 to 75%) | C (C=>25 to 50%) | A (A=>75 to 100%) |  |  |  | 
18 | CC(Nc1ncnc2[nH]cnc12)c1oc2cccc(F)c2c(=O)c1-c1cccc(F)c1 (single isomer, unassigned; (-)) [Example 78, (−)-2-(1-(9H-purin-6-ylamino)ethyl)-5-fluoro-3-(3-fluorophenyl)-4H-chromen-4-one] | 0 to 25 | 50 to 75 | 205 to 208 | 25 to 50 |  |  |  |  |  |  |  |  | 50 to 100
19 | CC(c1oc2cccc(F)c2c(=O)c1-c1cccc(F)c1)n1cnc2c(N3CCN(C)CC3)ncnc21 (stereo not shown) [Example 125, 5-fluoro-3-(3-fluorophenyl)-2-(1-(6-(4-methylpiperazin-1-yl)-9H-purin-9-yl)ethyl)-4H-chromen-4-one] | 0 to 25 | 25 to 50 | 199 to 201 |  |  |  |  |  |  |  |  |  | 
20 | CC(C)C(=O)Nc1ccc(-c2nn(C(C)c3oc4cccc(F)c4c(=O)c3-c3cccc(F)c3)c3ncnc(N)c23)cc1 (stereo not shown) [Example 48, N-(4-(4-amino-1-(1-(5-fluoro-3-(3-fluorophenyl)-4-oxo-4H-chromen-2-yl)ethyl)-1H-pyrazolo[3,4-d]pyrimidin-3-yl)phenyl)isobutyramide] |  |  | 154 to 157 | 25 to 50 |  |  |  |  |  | 50 to 75 | 75 to 100 | ≤ 50 | 
